Assay results reported in patent US20250332149A1, “PIPERIDINE COMPOUNDS AND PHARMACEUTICAL COMPOSITIONS” (Lumos Pharma, Inc., priority 2024, published 2025).
Read-outs that look alike come from different tables or passages of the source.

Experiment: Phase 1 study Part 2: food effect on plasma PK of LUM-201 capsule
Format: in vivo, human
Details: for % AUCex, Arithmetic Mean / % AUCex, Geometric Mean / Clast, Arithmetic Mean / Clast, Geometric Mean / tlag, Median / tlast, Median / λz, Arithmetic Mean / λz, Geometric Mean / AUC(0-inf) / AUC(0-t) / Cmax / half-life / Tmax: oral; for AUC(0-inf) / AUC(0-t) / Cmax / half-life / Tmax: human, plasma, po, 85.3 mg; for Tmax: read-out: tmax, Median
Description: This was a single center, open-label, randomized, Phase 1 study in healthy adult subjects. This study consisted of 2 parts: Part 1 was a 4-sequence, 4-treatment, 4 Treatment Periods, crossover study to determine the relative bioavailability of current tablets to new capsule formulations of LUM-201; Part 2 was a 2-sequence, 2-treatment, 2 Treatment Periods, crossover study to evaluate the food effect on the bioavailability of the new capsule formulation of LUM-201. An individual subject was allowed to participate in only 1 part (Part 1 or Part 2) of the study. Forty subjects were planned and enrolled in this study. • Part 1: A total of 28 subjects were planned and enrolled in Part 1. Part 1 consisted of 4 sequences, each having 4 Treatment Periods enrolling 7 subjects (1:1:1:1 ratio). During Treatment Periods 1 through 4, each subject received 4 single oral doses of LUM-201 drug product in a randomized, crossover order. • Part 2: A total of 12 subjects were planned and enrolled in Part 2. Part 2 consisted of 2 sequences, each having 2 Treatment Periods enrolling 6 subjects (1:1 ratio). Each subject received a single oral dose of LUM-201 at each Treatment Period. During Treatment Periods 1 and 2, each subject received 2 single oral doses of LUM-201 in a randomized, crossover order. • On Day 1 of Treatment Period 1, subjects were administered the assigned treatment (A or B) as randomized, followed by a washout of at least 3 days between Treatment Periods 1 and 2. Subjects stayed in-house (not discharged) between the Treatment Periods. • Treatment A was dosed at 85.3 mg capsule formulation of LUM-201 (intact capsule consumed unopened) consumed while subject was in a fasted state with 240 mL of water. • Treatment B was dosed at 85.3 mg capsule formulation of LUM-201 (intact capsule consumed unopened) consumed 30 minutes after start of a high-fat meal with 240 mL of water. • Subjects were discharged from the study center on the morning of Day 3 of Treatment Period 2 after the scheduled study assessments had been completed.
Fasted Treatment Period (Treatments A): Each subject received a single dose of LUM-201 in the morning of Day 1 after an overnight fast of at least 10 hours.
Treatment A was dosed at 85.3 mg capsule formulation of LUM-201 (intact capsule consumed unopened) consumed while subject was in a fasted state with 240 mL of water.
Fed Treatment Period (Treatment B): On the morning of Day 1, following an overnight fast of at least 10 hours, a high-fat breakfast (approximately 800 to 1000 calories) was served approximately 30 minutes before the planned dosing time. Subjects were required to eat the entire breakfast in less than 30 minutes.
Treatment B was dosed at 85.3 mg capsule formulation of LUM-201 (intact capsule consumed unopened) consumed 30 minutes after the start of the high-fat breakfast with 240 mL of water according to the FDA Guidance 20225. […]

[1] = 85.3 mg capsule with food vs fasted, statistically significant
[2] = Part 2, Treatment A: 85.3 mg capsule, fasted
[3] = Part 2, Treatment B: 85.3 mg capsule, 30 minutes after start of high-fat meal

Structure (SMILES): CC(C)(N)C(=O)N[C@H](COCc1ccccc1)C(=O)N1CCC2(CC1)CN(S(C)(=O)=O)c1ccccc12 [LUM-201, N-[1(R)-[(1,2-dihydro-1-methanesulfonylspiro[3H-indole-3,4′-piperdin]-yl)carbonyl]-2-(phenylmethyloxy)ethyl]-2-amino-2-methylpropanamide methanesulfonate]
- food effect on tmax (85.3 mg capsule with food vs fasted): no significant effect
- increase of AUC0-inf with food [1]: 17.8%
- increase of AUC0-last with food [1]: 17.8%
- increase of Cmax with food [1]: 64.4%
- % AUCex, Arithmetic Mean [2]: 1.868%
- % AUCex, Geometric Mean [2]: 1.689%
- Clast, Arithmetic Mean [2]: 0.7762 ng/mL
- Clast, Geometric Mean [2]: 0.7216 ng/mL
- tlag, Median [2]: 0.2489 h
- tlast, Median [2]: 48.03 h
- λz, Arithmetic Mean [2]: 0.0874 h⁻¹
- λz, Geometric Mean [2]: 0.0848 h⁻¹
- % AUCex, Arithmetic Mean [3]: 2.081%
- % AUCex, Geometric Mean [3]: 1.845%
- Clast, Arithmetic Mean [3]: 0.9223 ng/mL
- Clast, Geometric Mean [3]: 0.8783 ng/mL
- tlag, Median [3]: 0.2906 h
- tlast, Median [3]: 48.00 h
- λz, Arithmetic Mean [3]: 0.0829 h⁻¹
- λz, Geometric Mean [3]: 0.0803 h⁻¹
- AUC(0-inf) (Part 2, Treatment A: 85.3 mg capsule, fasted, read-out: AUC0-inf, Arithmetic Mean): 538 ng·h/mL
- AUC(0-inf) (Part 2, Treatment A: 85.3 mg capsule, fasted, read-out: AUC0-inf, Geometric Mean): 504 ng·h/mL
- AUC(0-t) (Part 2, Treatment A: 85.3 mg capsule, fasted, read-out: AUC0-last, Arithmetic Mean): 528 ng·h/mL
- AUC(0-t) (Part 2, Treatment A: 85.3 mg capsule, fasted, read-out: AUC0-last, Geometric Mean): 494 ng·h/mL
- Cmax (Part 2, Treatment A: 85.3 mg capsule, fasted, read-out: Cmax, Arithmetic Mean): 87.3 ng/mL
- Cmax (Part 2, Treatment A: 85.3 mg capsule, fasted, read-out: Cmax, Geometric Mean): 80.5 ng/mL
- half-life (Part 2, Treatment A: 85.3 mg capsule, fasted, read-out: t1/2, Arithmetic Mean (converted)): 8.39 h
- half-life (Part 2, Treatment A: 85.3 mg capsule, fasted, read-out: t1/2, Geometric Mean (converted)): 8.17 h
- Tmax [2]: 1.53 h
- AUC(0-inf) (Part 2, Treatment B: 85.3 mg capsule, 30 minutes after start of high-fat meal, read-out: AUC0-inf, Arithmetic Mean): 626 ng·h/mL
- AUC(0-inf) (Part 2, Treatment B: 85.3 mg capsule, 30 minutes after start of high-fat meal, read-out: AUC0-inf, Geometric Mean): 591 ng·h/mL
- AUC(0-t) (Part 2, Treatment B: 85.3 mg capsule, 30 minutes after start of high-fat meal, read-out: AUC0-last, Arithmetic Mean): 614 ng·h/mL
- AUC(0-t) (Part 2, Treatment B: 85.3 mg capsule, 30 minutes after start of high-fat meal, read-out: AUC0-last, Geometric Mean): 579 ng·h/mL
- Cmax (Part 2, Treatment B: 85.3 mg capsule, 30 minutes after start of high-fat meal, read-out: Cmax, Arithmetic Mean): 151 ng/mL
- Cmax (Part 2, Treatment B: 85.3 mg capsule, 30 minutes after start of high-fat meal, read-out: Cmax, Geometric Mean): 134 ng/mL
- half-life (Part 2, Treatment B: 85.3 mg capsule, 30 minutes after start of high-fat meal, read-out: t1/2, Arithmetic Mean (converted)): 8.87 h
- half-life (Part 2, Treatment B: 85.3 mg capsule, 30 minutes after start of high-fat meal, read-out: t1/2, Geometric Mean (converted)): 8.61 h
- Tmax [3]: 1.5 h
